According to patent publication US20120077818A1, “COMPOSITIONS COMPRISING TRANSNORSERTRALINE AND SEROTONIN RECEPTOR 1A AGONISTS/ANTAGONISTS AND USES THEREOF” (Sunovion Pharmaceuticals Inc., priority 2009, published 2012):
“Also recorded” adds a separate entry of the source.

Tested on: dorsal raphe 5-HT neurons
Test: In vivo electrophysiological recordings of dorsal raphe (DR) 5-HT neurons
Parameters: species or system rat
Description: Male Sprague Dawley rats (Charles River, St. Constant, QC) weighing 250 to 300 g, were used for the experiments. They were housed individually and kept under standard laboratory conditions (12:12 hour light/dark cycle with free access to food and water). All animals were handled according to the guidelines of the Canadian Council on Animal Care (CCAC) and protocols in this study were approved by the local Animal Care Committee (Ottawa Health Research Institute, Ottawa, ON, Canada).
Rats were anaesthetized with chloral hydrate (400 mg/kg; i.p.) and placed into a stereotaxic frame. The extracellular recordings of 5-HT neurons in the dorsal raphe (“DR”) were carried out using single-barrelled glass micropipettes (R&D Scientific Glass, Spencerville, Md.) preloaded with a 2 M NaCl solution. Their impedance typically ranged between 4-7 MΩ.
The single-barrelled glass micropipettes were positioned using the following coordinates (in mm from lambda): AP, +1.0 to 1.2; L, 0±0.1; V, 5 to 7. The presumed 5-HT neurons were then identified using the following criteria: a slow (0.5-2.5 Hz) and regular firing rate and long-duration (2-5 ms) bi- or triphasic extracellular waveform (Aghajanian and Vandermaelen, 1982b). […] This occasional firing pattern of 5-HT neurons was analyzed by spike interval burst analysis following the criteria set by Hajos et al. The onset of a burst was defined as the occurrence of two spikes with an interspike interval shorter than 0.005 s.
The percent of baseline firing rate were measured 60 seconds after systemic administration of the triple reuptake inhibitor. Various parameters were determined to examine the electrophysiological effects of co-administration of a transnorsertraline with WAY-100635. These parameters included the number of single spikes, bursts, cells per track and the firing rate of 5-HT neurons.
Electrophysiological data expressed as means±S.E.M of percent of baseline firing rate or as means±S.E.M of single spikes or bursts measured from the same neurons. Data were analyzed by using a one- or two-ways analysis of variance (ANOVA), with treatment, treatment and pre-treatment or treatment and brain region as main factors. Fisher's protected least significant difference test (Fisher's PLSD-test) was used to analyze the statistical significance between groups. The paired Student's t test was used in experiments comparing two groups. In each experiment, a level of p<0.05 was accepted as evidence for a statistically significant effect.

[1] = rats pre-treated with WAY-100635

| SMILES | number of bursts of 5-HT neurons (effect in words) [1] | number of single spikes of 5-HT neurons (effect in words) [1] | DR 5-HT firing rate (effect in words) (rats pre-treated with WAY-100635, (1R,4S)-transnorsertraline 0.5-2 mg/kg iv) | spontaneous firing rate of DR 5-HT neurons (effect in words) (WAY-100635 alone, 100 μg/kg iv) | spontaneous firing rate of DR 5-HT neurons (WAY-100635 alone, 100 μg/kg iv, printed as 1.3±0.1 vs 1.4±0.1 (n=8), in Hz (unit assumed)) |
| --- | --- | --- | --- | --- | --- |
| N[C@@H]1CC[C@@H](c2ccc(Cl)c(Cl)c2)c2ccccc21 [(1R,4S)-transnorsertraline, (1R,4S)-trans-4-(3,4-dichlorophenyl)-1,2-3,4-tetrahydro-1-naphthalenamine] | significantly increased | significantly increased | significant increase; also recorded: markedly increased | – | – |
| COc1ccccc1N1CCN(CCN(C(=O)C2CCCCC2)c2ccccn2)CC1 [WAY-100635, reference compound] | – | – | – | did not alter | 1.4±0.1 |
